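Step 1: Grow cells in 96-well plates. Step 2: Expose to compound for 48 hours at 5 concentrations. Step 3: Interpolate endpoints linearly; if unreached, use highest concentration. GI50 marks 50% less growth.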 Calls of active or inactive are those of the source. Cut-off read from the data, not from the text of the source: active = GI50 up to about 1.1 µM and inactive = higher.
Assays:
Test in all cases: NCI-60 cell line screen, 48 h
[1] = test system: COLO 205
[2] = test system: DU-145
[3] = test system: HCC 2998
[4] = test system: HL-60
[5] = test system: KM12
[6] = test system: M14
[7] = test system: MCF7
[8] = test system: Malme-3M
[9] = test system: NCI-H226
[10] = test system: NCI-H460
[11] = test system: OVCAR-3
[12] = test system: OVCAR-4
[13] = test system: OVCAR-5
[14] = test system: PC-3
[15] = test system: SK-MEL-2
[16] = test system: SR
[17] = test system: SW-620
[18] = test system: EKVX
[19] = test system: SK-MEL-5

Measured: GI50

C=CCn1c(S)nnc1C12CC3CC(CC(C3)C1)C2
inactive: [1] > 100 µM | [2] 69.3 µM | [3] 76.4 µM | [4] 17.2 µM | [5] 75.5 µM | [6] 61 µM | [7] 42.9 µM | [8] > 100 µM | [9] > 100 µM | [10] 53.5 µM | [11] 59.4 µM | [12] 58.7 µM | [13] > 100 µM | [14] 32.7 µM | [15] 67.8 µM | [16] 1.51 µM | [17] > 100 µM

COc1cccc2c1C(=O)C(=O)c1c-2oc(=O)c2cc(C)cc(OC)c12
inactive: [1] 67 µM | [2] 13.6 µM | [18] 22.5 µM | [3] 14.5 µM | [4] 25.7 µM | [5] 21.1 µM | [6] 25.3 µM | [7] 23.7 µM | [8] 26.9 µM | [9] 72.8 µM | [10] > 75 µM | [11] 15.7 µM | [12] 14.9 µM | [13] > 75 µM | [14] 37.8 µM | [15] 16 µM | [19] 17 µM | [16] 8.91 µM | [17] 29.4 µM

O[C@@H]1C[C@@H]2N[C@@](O)(C[C@@H]2O)[C@H]1O
inactive: [1] > 100 µM | [2] > 100 µM | [18] > 100 µM | [3] > 100 µM | [4] > 100 µM | [5] > 100 µM | [6] > 100 µM | [7] > 100 µM | [8] > 100 µM | [9] > 100 µM | [10] > 100 µM | [11] > 100 µM | [12] > 100 µM | [13] > 100 µM | [14] > 100 µM | [19] > 100 µM | [16] > 100 µM | [17] > 100 µM

CCCCn1c(C)c(C(=O)OCC)s/c1=N/Nc1nc2ccccc2nc1-c1ccccc1
inactive: [1] > 100 µM | [2] 37.7 µM | [18] > 100 µM | [3] > 100 µM | [4] 17.9 µM | [6] > 100 µM | [7] 82.4 µM | [9] 78.5 µM | [10] > 100 µM | [11] 72.1 µM | [12] 65 µM | [13] > 100 µM | [14] 30.9 µM | [15] > 100 µM | [19] 46.8 µM | [16] > 100 µM | [17] > 100 µM

COc1ccc([N+](=O)[O-])c2c(NCCCN(C)C)c(C)c(C)nc12
inactive: [1] 26.2 µM | [2] > 100 µM | [3] > 100 µM | [4] 42.9 µM | [5] > 100 µM | [6] > 100 µM | [7] 49.9 µM | [8] 45.1 µM | [10] 34.4 µM | [11] 96.6 µM | [12] 27.8 µM | [13] > 100 µM | [14] 83 µM | [15] > 100 µM | [19] 46.8 µM | [16] 14.3 µM | [17] 54 µM

O=C(Nc1sccc1S(=O)(=O)c1ccc(Cl)cc1)c1ccc(F)cc1F
inactive: [1] > 100 µM | [2] 53.1 µM | [18] 19.6 µM | [3] > 100 µM | [4] > 100 µM | [5] > 100 µM | [6] > 100 µM | [7] 40.5 µM | [8] 31.9 µM | [9] 26.7 µM | [11] 37.4 µM | [12] 21.2 µM | [13] 27.8 µM | [14] 27.2 µM | [15] 18.9 µM | [19] 49.4 µM | [16] 18.2 µM | [17] 73.1 µM

Cc1cc(Cl)cc2c1NC(=O)/C2=N\Nc1ccccc1[N+](=O)[O-]
inactive: [1] > 100 µM | [2] 78.2 µM | [18] > 100 µM | [3] > 100 µM | [4] > 100 µM | [5] > 100 µM | [6] > 100 µM | [7] > 100 µM | [10] > 100 µM | [11] > 100 µM | [12] > 100 µM | [13] > 100 µM | [14] 38.8 µM | [15] > 100 µM | [19] > 100 µM | [16] 16.7 µM | [17] > 100 µM

CCN1CCC(O)(c2ccc(Oc3ccc(Cl)cc3)cc2)C(C(=O)c2ccc(Oc3ccc(Cl)cc3)cc2)C1 (stereo unspecified)
inactive: [1] 13.2 µM | [2] 16.5 µM | [18] 16.8 µM | [3] 12.5 µM | [4] 1.8 µM | [5] 2.56 µM | [6] 14 µM | [7] 5.41 µM | [8] 17.2 µM | [9] 15 µM | [10] 3.76 µM | [12] 14.3 µM | [13] 13.5 µM | [14] 9.57 µM | [15] 21.9 µM | [19] 12.2 µM | [16] 3.48 µM | [17] 12.8 µM
